Test results as given in US20110177943A1, “Benzyl-Substituted Thiadiazolyloxyphenylamidinium Salts” (priority 2009, published 2011).
Counter-ions that a name gives are not always drawn. Like-named read-outs stand apart in the source and are kept apart here. Marks after values point to notes of the source that are not given here.

What was measured:
[1] = logP by HPLC on reversed-phase columns (EEC directive 79/831 Annex V.A8); format: physicochemical; conditions: for chromatographic logP: [b] LC-MS determination in the acidic range at pH 2.7, 0.1% aqueous formic acid and acetonitrile, read-out: log p
Experimental: Calibration was carried out using unbranched alkan-2-ones (having from 3 to 16 carbon atoms) with known logP values (the logP values were determined by the retention times using linear interpolation between two successive alkanones).

[2] = system: Fusarium proliferatum; test: Production of Fumonisin FB1 by Fusarium proliferatum; format: cell-based; conditions: 120 h, read-out: inhibition of fumonisin FB1 production
Experimental: Production of Fumonisin FB1 by Fusarium proliferatum
The compounds were tested in microtitre plates at 5 concentrations of from 0.08 μM to 50 μM in a fumonisin-inducing liquid medium (0.5 g of malt extract, 1 g of yeast extract, 1 g of bactopeptone, 20 g of fructose, 1 g of KH2PO4, 0.3 g of MgSO47 H2O, 0.3 g of KCl, 0.05 g of ZnSO47 H2O and 0.01 g of CuSO4×5 H2O per litre) with DMSO (0.5%). Inoculation was carried out using a concentrated spore suspension of Fusarium proliferatum at a final concentration of 2000 spores/ml.
The plate was incubated at 20° C. and high atmospheric humidity for 5 days.
At the beginning and after 5 days, the OD was measured at OD620 (repeated measurements: 3×3 measurements per well) to calculate the inhibition of growth.
After 5 days, a sample of the liquid medium was removed and diluted 1:1000 with 50% strength acetonitrile. The concentration of FB1 of the diluted samples was analysed by HPLC-MS/MS, and the measured values were used to calculate the inhibition of fumonisin FB1 production compared to an active compound-free control. […]

[3] = system: Phakopsora pachyrhizi; test: Phakopsora Test (soya beans)/Protective; format: in vivo; conditions: protective, active compound concentration 100 ppm, evaluation 11 days after inoculation
Experimental: Phakopsora Test (soya beans)/Protective
One day after spraying, the plants are inoculated with an aqueous spore suspension of the soya bean rust pathogen (Phakopsora pachyrhizi). The plants are placed in a greenhouse at 20° C. and a rel. atmospheric humidity of 80%.
Evaluation is carried out 11 days after the inoculation.

[4] = system: Sphaerotheca fuliginea; conditions: cucumber, protective, active compound concentration 500 ppm, evaluation 7 days after inoculation
Experimental: Sphaerotheca Test (cucumber)/protective
1 day after the treatment, the plants are inoculated with a spore suspension of Sphaerotheca fuliginea. The plants are then placed in a greenhouse at a relative atmospheric humidity of 70% and a temperature of 23° C.
Evaluation is carried out 7 days after the inoculation.

CCN(C)C=Nc1cc(C)c(Oc2nc(Cc3ccc(Cl)cc3)ns2)cc1C.O=S(=O)(O)O [Example 1, N′-(4-{[3-(4-chlorobenzyl)-1,2,4-thiadiazol-5-yl]oxy}-2,5-dimethylphenyl)-N-ethyl-N-methylimidoformamidesulphate]
log p ([1]; pH 2.7): 1.88^[b]

Br.CCN(C)C=Nc1cc(C)c(Oc2nc(Cc3ccc(Cl)cc3)ns2)cc1C [Example 2, N′-(4-{[3-(4-chlorobenzyl)-1,2,4-thiadiazol-5-yl]oxy}-2,5-dimethylphenyl)-N-ethyl-N-methylimidoformamide hydrobromide]
inhibition at 50 µM [2]: > 80%
chromatographic logP ([1]; reversed-phase HPLC column): 1.83
efficacy [3]: ≥ 80%

CCN(C)C=Nc1cc(C)c(Oc2nc(Cc3ccc(Cl)cc3)ns2)cc1C [Example 3, N′-(4-{[3-(4-Chlorobenzyl)-1,2,4-thiadiazol-5-yl]oxy}-2,5-dimethylphenyl)-N-ethyl-N-methylimidoformamide hydrochloride (1:1)]
chromatographic logP [1]: 2.03

N′-(4-{[3-(4-chlorobenzyl)-1,2,4-thiadiazol-5-yl]oxy}-2,5-dimethylphenyl)-N-ethyl-N-methylimido-formamide-1,2-benzothiazol-3(2H)-one 1,1-dioxide [Example 4]
efficacy [4]: ≥ 70%
